Measured values: PMC12091851, “Replacing a Cereblon Ligand by a DDB1 and CUL4 Associated Factor 11 (DCAF11) Recruiter Converts a Selective Histone Deacetylase 6 PROTAC into a Pan‐Degrader” (Chemmedchem, 2025)

Target: HDAC1 (Homo sapiens, UniProt Q13547)
Assay: Simple Western immunoassay, HDAC1 levels in U-87MG cell lysates
Type: cell-based
Parameters: endogenous in cells; host or cells: MM.1S
Conditions: 10 μM, 24 h
Protocol: Figure S5. Analysis of HDAC1 and 6 degradation in U-87MG cells. Simple western immunoassay analysis of U-87MG cell lysates. The cells were treated with the indicated compound (10 µM) or vehicle (DMSO) for 24 h. Top: Quantification of HDAC levels, presented as mean ± standard deviation of n = 2 biological replicates; Significance compared to vehicle: ns = p≥0.05 and *** = p≤0.001. Bottom:
Representative images of n = 2 biological replicates.
(1 picture or pasted object on this page, not shown here)
2. Biological Experiments
No unexpected or unusually high safety hazards were encountered.
The human multiple myeloma cell line MM.1S (CRL-2974) was obtained from American Type Culture Collection (ATCC, Manassas, VA, USA). […]
Louis, MO, USA) according to manufacturer´s instructions. Protein content was determined by Pierce™ BCA Protein Assay Kit (Catalog# 23225, Thermo Fisher Scientific Inc.) according to manufacturer´s guidelines. […]
Fluorescence Separation 8x25 Capillary Cartridges (Catalog# SM-FL004-1, Protein Simple, Bio-Techne, Minneapolis, MN, USA) were used for separation and the Anti-Mouse Detection Module (Catalog# DM-002, Protein Simple) was used for detection with addition of 20x Anti-Rabbit HRP […]
Conjugate (Catalog# 043-426, Protein Simple) according to manufacturer´s instructions. […] Evaluation and quantification was performed with the compass software (6.2.0, Protein Simple). […]

HDAC1, sequence (Q13547 whole entry): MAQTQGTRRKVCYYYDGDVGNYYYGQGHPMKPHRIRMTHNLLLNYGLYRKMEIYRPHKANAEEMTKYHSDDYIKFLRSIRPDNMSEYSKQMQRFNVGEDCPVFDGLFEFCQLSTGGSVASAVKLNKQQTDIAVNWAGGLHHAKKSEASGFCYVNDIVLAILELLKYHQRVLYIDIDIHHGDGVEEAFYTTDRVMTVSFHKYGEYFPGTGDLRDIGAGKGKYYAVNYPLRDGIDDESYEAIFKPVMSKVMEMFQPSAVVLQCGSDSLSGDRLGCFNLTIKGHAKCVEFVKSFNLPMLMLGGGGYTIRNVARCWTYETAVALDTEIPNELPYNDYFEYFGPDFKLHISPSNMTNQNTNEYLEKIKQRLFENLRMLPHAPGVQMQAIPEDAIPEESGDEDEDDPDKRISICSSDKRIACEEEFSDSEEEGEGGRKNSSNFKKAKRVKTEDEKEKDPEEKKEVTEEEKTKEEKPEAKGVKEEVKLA

Row | SMILES | HDAC1 degradation in U-87MG cells
1 | O=C(CCCCCCNC(=O)c1ccc(N(C(=O)CCl)C(C(=O)NCc2ccccc2)c2ccc(Cl)c(Cl)c2)cc1)NO (centres unmarked) [Compound 2] | significant degradation for HDAC1
2 | O=C(CCCCCCNC(=O)c1ccc(NC(=O)CCCCCCCCCCCN(C(=O)CCl)C(C(=O)NCc2ccccc2)c2ccc(Cl)c(Cl)c2)cc1)NO (centres unmarked) [Compound 1j] | significant HDAC1 and 6 degradation
